Data from patent US4104383A, “Derivatives of phenylpropenylamine” (C M Industries, priority 1973, dated 1978).
Converted amounts (≈) assume the structure as drawn. Read-outs that look alike come from different tables or passages of the source.

Columns and labels:
[1] = system: severely depressed hospital patients; assay: Clinical evaluation in severely depressed hospital patients; format: in vivo, human
Protocol: A clinical evaluation of 933 CB was carried out using a sample of […] severely depressed hospital patients who were considering suicide or in some cases had attempted it. The sample contained 13 cases of nervous depression, 10 cases of reactional depression, seven cases of psychotic depression and three cases of severe melancholia. A clear favourable action on the depressive […] occurred in 21 of the patients. Several cases where a favourable response was noted had previously been treated with tricyclic antidepressants without success. […] The daily dose of the compound administered to each patient varied from 20 to 200 mg, the most favourable results being obtained with a dose of 40 to 60 mg.

[2] = system: adynamic and depressive states; assay: Clinical use in adynamic and depressive states; format: in vivo; settings: 2 to 10 compressed tablets of 100 mg daily or 1 to 5 injectible ampoules of 100 mg
Protocol: The compounds of the invention have been successfully used clinically to treat adynamic and depressive states, such as melancholia, reactive depressions and manic-depressive psychosis.
The compounds of the present invention are preferably formulated for oral administration or for injection. The compounds of the invention are also suitable for rectal administration. For oral administration, compressed tablets, each containing from 20 to 500 mg of active ingredient are recommended and for injection, ampoules each containing from 10 to 500 mg of active ingredient are recommended.

[3] = system: mouse; assay: Activity test (spontaneous motility, photoelectric cell cage); format: in vivo; settings: read-out: Activity, median effective dose
Protocol: (Boissier J. R. and Simon P. "Archives Internationales de Pharmacodynamie",1965, 158, 212).
A mouse was placed in a Plexiglass cage crossed by a plurality of beams of light acting on photoelectric cells. When the mouse moved and thereby interrupted one of the beams, this caused an electrical pulse which was registered on a counter. The measurements were carried out on batches of six treated animals and six control animals for a period of 20 minutes.
(§1) The results obtained from the tests described above are summarized in Table II; the figures given in this Table show the value of the median effective dose for each test. The method of administration is indicated by "I.V." for intravenous administration, "I.P." for intraperitoneal administration and "P.O." for oral administration.

[4] = system: dorsal hippocampus; assay: Electroencephalographic study, electrical stimulation of the dorsal hippocampus; format: in vivo, rabbit; settings: conscious rabbits, intravenous; 6 volts, 30 cycles per second, 5 seconds
Source text: Electroencephalographic study
(Schmitt H. and Schmitt H., "Therapie", 1966, 3, 675-684)
Electrical stimulation of the dorsal hippocampus (6 volts; 30 cycles per second; 5 seconds, extent: 1.5 milliseconds) causes electrical discharges in the rabbit which continue for several seconds after cessation of electrical stimulation. These discharges last from 15 to 19 seconds in a normal animal. When the rabbit is under the influence of an antidepressant drug, these discharges last much longer. The experiment was carried out on batches of six conscious rabbits implanted by the technique of Monnier M. and Gangloff H. ("Atlas of Stereotaxic brain research on the conscious rabbit", Elsevier 1961), the products being administered intraveneously. The discharges were increased by 60% when the rabbits were treated with compound 933 CB and by 20 % when the rabbits were treated with compound 994 CB.

[5] = system: central nervous system; assay: Traction test; format: in vivo; settings: mouse, read-out: Traction, median effective dose
Source text: (Courvoisier S., Ducrot R. and Julou L. "Psychotropic Drugs", Elsevier, 1957, p.373)
In this test, a mouse was hung by its front legs on a stretched wire. The animal will normally recover by itself, by gripping with its rear legs within 5 seconds.
as §1

[6] = system: central nervous system; assay: Balancing test (rotating shaft); format: in vivo; settings: mouse, read-out: Balancing, median effective dose
Protocol: (Boissier J. R., Dumont C. and Ratouis R. "Therapie", 1960, 15, 1170)
In this test, mice were placed for 1 minute on a horizontal wooden shaft which rotated steadily at 12 r.p.m. The mice will normally counteract this movement using positional and balancing reflexes; if, however, the central nervous system is affected, these reflexes are disturbed and a certain number of animals fall off.
as §1

[7] = system: mouse; assay: Exploration test (plank with holes, anxiolytic activity); format: in vivo; settings: read-out: Exploration, median effective dose
Protocol: (Boissier J. R. and Simon P. "Archives Internationales de Pharmacodynamie",1964, 147, 372).
This test, using a plank with holes in it, makes it possible to measure objectively the anxiolytic activity of a compound by noting the decrease in the number of holes explored within a given time by a treated mouse in comparison with a control mouse. The animals are used in batches of 10 and are allowed 5 minutes for exploration.
as §1

[8] = system: mouse; assay: Reserpine test (reserpine-induced depression); format: in vivo; settings: reserpine 5 mg/kg subcutaneously, read-out: Reserpine, median effective dose
Protocol: (Rubin B., Malone M. H., Waugh M. H. and Burke J. C., "Journal of Pharmacology and Experimental Therapeutics", 1957, 120, 125)
Reserpine, administered subcutaneously to a mouse in a dose of 5 mg/kg body weight, causes symptoms of severe depression, with absolute fixity, ptosis of the eyelids, hypothermia and catatonia; the simultaneous administration of a substance having anti-depressive properties leads to the progressive total or partial disappearance of this depressed state.
as §1

[9] = Toxicity, LD50 in mice; settings: mouse, in vivo
Source text: The toxicity of the compounds of the invention is generally low, as may be seen from Table IV, which gives the LD50 in mg/kg in mice for some of the compounds of the invention.

[10] = system: isolated rat duodenum; assay: Antispasmodic activity, barium chloride-induced spasms of isolated rat duodenum; settings: tyrode bath 37° C, barium chloride 100 μg/liter, compound added 3 minutes before, read-out: 50% effective concentration
Protocol: The antispasmodic activity of the compounds of the invention was also studied on the isolated rat duodenum, kept alive in an aerated tyrode bath at 37° C. Spasms were induced by the administration of barium chloride in an amount of 100 μg/liter. The compounds of the invention were added, at various concentrations, to the tyrode bath 3 minutes before the addition of the spasmogenic agent and the concentration determined of each which reduced by 50% the extent of the contraction caused by this agent.

[11] = 30 severely depressed hospital patients, 20 to 200 mg daily
[12] = po, orally, read-out: LD50 orally

Compound | patients with a clear favourable action on the depressive thymine [1, 11] [patients] | patients with improvement noted in less than a week [1, 11] [patients] | rapidity of action (in words) ([1]; depressed patients) | results on administration (in words) [2] | ED50 ([3]; ip, I.P.) [mg/kg] | ED50 ([3]; po, P.O.) [mg/kg] | Increase of hippocampal discharges [4] [%] | ED50 ([5]; ip, I.P.) [mg/kg] | ED50 ([5]; po, P.O.) [mg/kg] | ED50 ([6]; ip, I.P.) [mg/kg] | ED50 ([6]; po, P.O.) [mg/kg] | ED50 ([7]; ip, I.P.) [mg/kg] | ED50 ([7]; po, P.O.) [mg/kg] | ED50 ([8]; ip, I.P.) [mg/kg] | ED50 ([8]; po, P.O.) [mg/kg] | LD50 ([9]; ip, I.P., read-out: LD50 I.P.) [mg/kg] | LD50 [9, 12] [mg/kg] | EC50 [10] [ng/mL]
CCN(CC)CC=Cc1ccc(C2CCCCC2)c(Cl)c1 [933 CB, 3-chloro-4-cyclohexyl-1-(3-diethylamino-propen-1-yl)-benzene] | 21 | 13 | The action was rapid | Good results were obtained | 25 | 100 | 60 | 50 | 100 | 30 | 50 | 25 | 25 | 75 | 100 | 125 | > 1080 | 0.6 to 1 (≈ 1.96 to 3.27 nM)
CCN(CC)CCCc1ccc(C2CCCCC2)c(Cl)c1 [934 CB, 3-Chloro-4-cyclohexyl-1-(3-diethylamino-propyl)-benzene] |  |  |  |  | 30 |  |  |  |  | 12.5 |  | 20 |  | 50 |  | 125 to 250 | > 750 | 0.6 (≈ 1.95 nM)
CCN(CC)CC=Cc1ccc(-c2ccccc2)cc1 [994 CB, 4-(3-diethylamino-propen-1-yl)-biphenyl] |  |  |  |  | 100 |  | 20 | 100 |  | 50 |  | 50 | 50 | 50 | 50 |  |  | 3 (≈ 11.3 nM)
CCN(CC)CCCc1ccc(-c2ccccc2)cc1 [31001 CB, 4-(3-diethylamino-propyl)-biphenyl] |  |  |  |  | 50 |  |  | 100 |  | 100 |  |  |  |  |  |  |  | 1 (≈ 3.74 nM)
CN(C)CC=Cc1ccc(C2CCCCC2)c(Cl)c1 [31004 CB, 3-chloro-4-cyclohexyl-1-(3-dimethylamino-propen-1-yl)-benzene] |  |  |  |  | 12.5 |  |  | > 100 |  | 100 |  | 60 |  |  |  | 125 | > 750 | 1 to 3 (≈ 3.6 to 10.8 nM)
CN(C)CCCc1ccc(C2CCCCC2)c(Cl)c1 [31012 CB, 3-Chloro-4-cyclohexyl-1-(3-dimethylamino-propyl)-benzene] |  |  |  |  | 50 |  |  | 100 |  | 100 |  | 50 |  |  |  | 250 to 300 | > 750 | 
Clc1cc(C=CCN2CCOCC2)ccc1C1CCCCC1 [31013 CB, 3-chloro-4-cyclohexyl-1-(3-morpholino-propen-1-yl)-benzene] |  |  |  |  | 50 |  |  |  |  |  |  | 50 |  |  |  | 500 | > 750 | 
Clc1cc(C=CCN2CCCC2)ccc1C1CCCCC1 [31015 CB, 3-Chloro-4-cyclohexyl-1-(3-pyrrolidino-propen-1-yl)-benzene] |  |  |  |  | 20 |  |  | 50 |  | 50 |  | 25 |  | 50 |  | 62.5 | > 750 | 1 to 3 (≈ 3.29 to 9.87 nM)
Clc1cc(CCCN2CCCC2)ccc1C1CCCCC1 [31016 CB, 3-Chloro-4-cyclohexyl-1-(3-pyrrolidino-propyl)-benzene] |  |  |  |  | 12.5 |  |  |  |  |  |  | 20 |  | 50 |  | 50 to 100 | > 750 | 
CCN(CC)CC=Cc1ccc(C2CCCCC2)cc1 [31023 CB, 4-cyclohexyl-1-(3-diethylamino-propen-1-yl)-benzene] |  |  |  |  | 25 |  |  | 25 |  | 30 |  |  |  |  |  |  |  | 
CCN(CC)CC=Cc1ccc(C2CCCCC2)c(F)c1 [Compound 31030, 3-fluoro-4-cyclohexyl-1-(3-diethylamino-propen-1-yl)-benzene] |  |  |  |  | 100 |  |  | 50 |  | 25 |  | ≥ 50 |  |  |  |  |  | 
